From patent US20130065818A1, “Arylamide Compounds And Compositions And Uses Thereof” (POLYMEDIX, priority 2006, published 2013)
Several values for one entry are separate records, joined by “and”; a condition that tells them apart may be missing. Identical values can stand only once.

How the values were obtained:
[1] = tested on: fluoroquinolone-resistant, methicillin-resistant Staphylococcus aureus (K950); assay: NZW rabbit keratitis model, corneal colony counts; format: in vivo; details: for Log10 CFU/ml, Mean / Log10 CFU/ml, Median / Log10 CFU/ml / CFU/ml: Example 11; for Log10 CFU/ml, Mean / Log10 CFU/ml, Median: count 3; for Log10 CFU/ml / CFU/ml: individual cornea; for CFU/ml: Inoculum = 1098 CFU/cornea; for Corneal colony count, Mean / Corneal colony count, Median / Corneal colony count, TrMean: N=3; for Corneal colony count, log / Corneal colony count: individual corneas; for Corneal colony count: Inoculum = 1048 cfu/cornea, 1 hour after final drop; for Log10 CFU/ml, group comparison (Duncan Multiple Comparisons Test): P = 0.05, < = significantly fewer colony counts
Description: One purpose of the following experiments was to compare the efficacy of 1% Oligomer 2, 0.5% Oligomer 2, and 5% vancomycin in the treatment of a fluoroquinolone-resistant, methicillin-resistant Staphylococcus aureus infection in the NZW rabbit keratitis model with or without intact corneal epithelia.
Nothing was done to the right eyes.
One purpose of the following experiments was to compare the efficacy of 0.25% Oligomer 2, with and without 0.005% benzalkonium chloride, and 5% vancomycin in the treatment of a fluoroquinolone-resistant, methicillin-resistant Staphylococcus aureus infection in the NZW rabbit keratitis model with or without intact corneal epithelia. The 0.005% benzalkonium chloride has been added to try to increase the penetration of 0.25% Oligomer 2 through the corneal epithelium.
One purpose of the following experiments was to determine the efficacy of 0.25% Oligomer 4, with and without 200 μM Farnesol, and 200 μM Farnesol in the treatment of a fluoroquinolone-resistant and methicillin-resistant Staphylococcus aureus infection in the NZW rabbit keratitis model with or without intact corneal epithelia. The 200 μM Farnesol has been added to try to increase the efficacy and penetration of 0.25% Oligomer 4 through the corneal epithelium.

[2] = NZW rabbit keratitis model, clinical evaluation (Total Ocular Score); details: for Total Ocular Score: Example 12 data display; for Chemosis score / Conj. score / Corneal Edema score / Corneal Infiltrate score / Discharge score / Iritis score: scale 0 = Normal to 3.0 = Severe
Method: Fifteen rabbits were received from Myrtles' Rabbitry, Thompson Station, TN. The clinical isolate of fluoroquinolone-resistant, methicillin-resistant (MRSA) Staphylococcus aureus (K950) was subcultured on 5% sheep blood agar and incubated at 37° C. in 6% CO2 overnight. The next morning, the MRSA strain was suspended in sterile trypticase soy broth to a 0.5 McFarland Standard, containing approximately 5×10^8 cfu/ml of bacteria. The absorbance of the suspension was measured at 650 nm using a Beckman DU-70 spectrophotometer. OD readings of 0.07 corresponded to 5×10^8 cfu/ml of bacteria. This concentration was appropriately diluted in sterile trypticase soy broth to provide the inoculum of approximately 1,000 (1.0×10^3) cfu/eye in 25 μl. Colony counts were performed on the inoculum to determine the actual cfu inoculated. Following general anesthesia with ketamine and xylazine and topical anesthesia with proparacaine and prior to bacterial inoculation in the left eyes, 6 mm areas of the corneal epithelia was removed centrally with an Amoils epithelial scrubber. Nothing was done to the right eyes. The 15 rabbits were then inoculated intrastromally in both eyes with 25 μl of the bacterial dilution of approximately 10^3 cfu/eye of the bacteria. The bacterial inoculation of the left eyes was directly under the epithelial defect created by the Amoils epithelial scrubber. The epithelia were removed in the left corneas in order to determine whether this layer of the cornea is a barrier for Oligomer 2 penetration when compared to the right cornea with an intact epithelium. A colony count was done on the inoculum to determine the actual cfu inoculated. The rabbits were immediately treated with analgesia in the form of and intramuscular injection of ketoprofen, 1.5 mg/kg. After 4 hours, the 15 rabbits were divided into 4 treatment groups and one untreated control group sacrificed at the onset of therapy. Both eyes of each rabbit of the treatment groups were treated with one 37 μl drop of the coded solutions or control Saline or 1 drop of vancomycin from its dropper bottle. The Oligomer 2 concentrations were masked and labeled as 1 and 2. The masked concentrations were 1% Oligomer 2 and 0.5% Oligomer 2 but the specific concentrations of solutions were not known to the lab workers who carried out the experiment. The vancomycin and control (Tris-Buffered Saline) were not masked.
Treatment was scheduled for every 15 minutes for 5 hours (21 total doses). However, PMX-1 and PMX-2 were exhausted after the 19th dose. Therefore, the actual treatment was 15 minutes for 4.5 hours (19 total doses). The 3 rabbits in group V were sacrificed 4 hours PI and large 9.5 mm buttons were removed from the corneas. These were placed in 1 ml of PBS and kept on ice. The corneal buttons were homogenized for 25 seconds on ice using the motorized homogenizer. After homogenization, colony counts were done on the homogenates using 5% sheep blood agar plates to determine the amount of bacteria contained in the corneas at the onset of therapy. Following the completion of therapy, the eyes were examined for clinical signs of infection. One hour after the final treatment, the treated rabbits (Groups I-IV) were sacrificed and large 9.5 mm buttons were removed from the corneas. These were placed in 1 ml of PBS and kept on ice. The corneal buttons were homogenized for 25 seconds on ice using the motorized homogenizer. After homogenization, colony counts were performed on the homogenates using 5% sheep blood agar plates to determine the amount of bacteria contained in the corneas after treatment. The next morning, the plates were counted and the number of cfu/eye of Staphylococcus aureus was determined for each cornea.
Fifteen rabbits were received from Myrtles' Rabbitry, Thompson Station, TN.

[3] = Example 11, Oligomer 4 / Farnesol study, abraded epithelium, individual eye
[4] = Example 11, abraded epithelium, count 3
[5] = Example 12, Ker-3 and Ker-4 combined, abraded epithelium, count 6
[6] = Abraded Epithelium (AE), individual eyes, Ker-1, drops every 15 min, 19 doses
[7] = Intact Epithelium (IE), individual eyes, Ker-1, drops every 15 min, 19 doses
[8] = Example 11, Oligomer 4 / Farnesol study, intact epithelium, individual eye
[9] = Example 11, intact epithelium, count 3
[10] = Example 12, Ker-3 and Ker-4 combined, intact epithelium, count 6

In the case of CC(C)=CCCC(C)=CCCC(C)=CCO [FARN-AE], the “Log10 CFU/ml, Mean” value ([1]; abraded epithelium) is reported as 6.8762 Log10 CFU/ml, the “Log10 CFU/ml, Median” value ([1]; abraded epithelium) is reported as 6.8893 Log10 CFU/ml and the “Log10 CFU/ml” value ([1]; abraded epithelium) is reported as 6.889 Log10 CFU/ml and 6.823 Log10 CFU/ml and 6.916 Log10 CFU/ml. The CFU/ml ([1]; abraded epithelium) was 7750000 CFU/ml and 6650000 CFU/ml and 8250000 CFU/ml, the Chemosis [2, 3] was 2.0 and 1.5 (2×) and the Conj. [2, 3] was 2.0 and 1.5 (2×). For the same compound, the “Corneal Edema” value [2, 3] was 2.0 and 1.0 (2×), the “Corneal Infiltrate” value [2, 3] was 1.0 (2×) and 0.5 and the Discharge [2, 3] was 2.0 and 1.5 (2×). The Iritis [2, 3] was 2.0 and 1.5 (2×), the “Total Score” value [2, 3] was 11.0 and 7.5 and 8.0 and the “Total Ocular Score, Mean” value [2, 4] was 8.83. The “Total Ocular Score, Median” value [2, 4] was 8.00, the “Total Ocular Score, Mean” value [2, 5] was 9.083 and the “Total Ocular Score, Median” value [2, 5] was 8.500. For the same compound, the “Total Ocular Score” value ([2]; Ker-3, abraded epithelium, individual eye) was 11.0 and 8.5 (2×) and the “Total Ocular Score” value ([2]; Ker-4, abraded epithelium, individual eye) was 11.0 and 7.5 and 8.0.

With CN[C@H](CC(C)C)C(=O)N[C@H]1C(=O)N[C@@H](CC(N)=O)C(=O)N[C@H]2C(=O)N[C@H]3C(=O)N[C@H](C(=O)N[C@H](C(=O)O)c4cc(O)cc(O)c4-c4cc3ccc4O)[C@H](O)c3ccc(c(Cl)c3)Oc3cc2cc(c3O[C@@H]2O[C@H](CO)[C@@H](O)[C@H](O)[C@H]2O[C@H]2C[C@](C)(N)[C@H](O)[C@H](C)O2)Oc2ccc(cc2Cl)[C@H]1O [VAN] the “Corneal colony count, Mean” value ([1]; Abraded Epithelium) was 2.674 Log10 CFU/ml, the “Corneal colony count, Median” value ([1]; Abraded Epithelium) was 2.845 Log10 CFU/ml and the “Corneal colony count, TrMean” value ([1]; Abraded Epithelium) was 2.674 Log10 CFU/ml. The “Corneal colony count, log” value ([1]; Abraded Epithelium) was 2.301 Log10 CFU/ml and 2.845 Log10 CFU/ml and 2.875 Log10 CFU/ml, the Corneal colony count ([1]; Abraded Epithelium) was 200 CFU/ml and 700 CFU/ml and 750 CFU/ml and the “Log10 CFU/ml, group comparison (Duncan Multiple Comparisons Test)” value ([1]; Abraded Epithelium) was “PMX-2 = VAN = PMX-1 < ONSET = CON”. The “Corneal colony count, Mean” value ([1]; Intact Epithelium) was 2.7239 Log10 CFU/ml, the “Corneal colony count, Median” value ([1]; Intact Epithelium) was 2.7404 Log10 CFU/ml and the “Corneal colony count, TrMean” value ([1]; Intact Epithelium) was 2.7239 Log10 CFU/ml. The “Corneal colony count, log” value ([1]; Intact Epithelium) was 2.74 Log10 CFU/ml and 2.653 Log10 CFU/ml and 2.778 Log10 CFU/ml, the Corneal colony count ([1]; Intact Epithelium) was 550 CFU/ml and 450 CFU/ml and 600 CFU/ml and the “Log10 CFU/ml, group comparison (Duncan Multiple Comparisons Test)” value ([1]; Intact Epithelium) was “VAN < PMX-1 = PMX-2 = ONSET = CON”. For the same compound, the Chemosis score [2, 6] was 3.0 and 2.5 (2×), the Conj. score [2, 6] was 3.0 and 2.5 (2×) and the “Corneal Edema score” value [2, 6] was 0.5 and 1.0 (2×). For the same compound, the “Corneal Infiltrate score” value [2, 6] was 0.5 and 0 (2×), the Discharge score [2, 6] was 3.0 and 2.0 and 2.5 and the Iritis score [2, 6] was 1.0 and 1.5 (2×). For the same compound, the “Total Score” value ([2]; Abraded Epithelium (AE), individual eyes, Ker-1, drops every 15 min, 19 doses, sum of six signs) was 11.0 and 9.5 and 10.0, the “Total Ocular Score, Mean” value ([2]; Abraded Epithelium, N=3) was 10.167 and the “Total Ocular Score, Median” value ([2]; Abraded Epithelium, N=3) was 10.000. For the same compound, the “Total Ocular Score, TrMean” value ([2]; Abraded Epithelium, N=3) was 10.167, the “Total Ocular Score, group comparison (Duncan Multiple Comparisons Test)” value ([2]; IE and AE groups, P = 0.05) was “CON IE = CON AE < VAN AE = PMX-1AE = PMX-2AE = VAN IE < PMX-1 IE = PMX-2 IE” and the Chemosis score [2, 7] was 3.0. The Conj. score [2, 7] was 2.5 and 3.0 (2×), the “Corneal Edema score” value [2, 7] was 1.0 and the “Corneal Infiltrate score” value [2, 7] was 0 (2×) and 0.5. For the same compound, the Discharge score [2, 7] was 3.0 (2×) and 2.5, the Iritis score [2, 7] was 2.0 (2×) and 1.0 and the “Total Score” value ([2]; Intact Epithelium (IE), individual eyes, Ker-1, drops every 15 min, 19 doses, sum of six signs) was 11.5 and 12.0 and 11.0. For the same compound, the “Total Ocular Score, Mean” value ([2]; Intact Epithelium, N=3) was 11.500, the “Total Ocular Score, Median” value ([2]; Intact Epithelium, N=3) was 11.500 and the “Total Ocular Score, TrMean” value ([2]; Intact Epithelium, N=3) was 11.500.

In the case of CC(C)=CCCC(C)=CCCC(C)=CCO [FARN-IE], the “Log10 CFU/ml, Mean” value ([1]; intact epithelium) is reported as 7.418 Log10 CFU/ml, the “Log10 CFU/ml, Median” value ([1]; intact epithelium) is reported as 7.330 Log10 CFU/ml and 7.3304 Log10 CFU/ml and the “Log10 CFU/ml” value ([1]; intact epithelium) is reported as 7.655 Log10 CFU/ml and 7.27 Log10 CFU/ml and 7.33 Log10 CFU/ml. The CFU/ml ([1]; intact epithelium) was 45200000 CFU/ml and 18600000 CFU/ml and 21400000 CFU/ml, the Chemosis [2, 8] was 1.5 (2×) and 1.0 and the Conj. [2, 8] was 1.5. For the same compound, the “Corneal Edema” value [2, 8] was 1.0 (2×) and 0.5, the “Corneal Infiltrate” value [2, 8] was 2.0 (2×) and 1.5 and the Discharge [2, 8] was 1.5 (2×) and 1.0. For the same compound, the Iritis [2, 8] was 1.5 (2×) and 2.0, the “Total Score” value [2, 8] was 9.0 and 7.0 and 9.5 and the “Total Ocular Score, Mean” value [2, 9] was 8.500. For the same compound, the “Total Ocular Score, Median” value [2, 9] was 9.000, the “Total Ocular Score, Mean” value [2, 10] was 9.000 and the “Total Ocular Score, Median” value [2, 10] was 9.250. For the same compound, the “Total Ocular Score” value ([2]; Ker-3, intact epithelium, individual eye) was 10.0 (2×) and 8.5 and the “Total Ocular Score” value ([2]; Ker-4, intact epithelium, individual eye) was 9.0 and 7.0 and 9.5.
